Laboratory results taken from patent US20030229105A1, “Treatment of autoimmune disorders” (Cyclacel Limited, priority 2002, published 2003).

Tests used:
HIV-1 = assay: p24 antigen ELISA of supernatants from induced HIV-1 latently infected cells (ACH2, 8E5, U1); type: cell-based; conditions: for inhibition of HIV-1 replication, prolonged treatment: U1 and 8E5 cells, up to 21 days, 5 or 10 μM (data not shown); for postintegrative HIV-1 progeny formation: low concentrations (data not shown)
Method: We chose HIV-1 stably integrated cells, lymphocytic ACH2 and 8E5 cell lines, as well as monocytic U1 cells (and their uninfected parental counterparts CEM and U937, respectively) for our initial studies, since viral transcription could be activated and scored through signals, such as Tat, TNF-α or phorbol myristate acetate (PMA) and PHA. We first activated viruses in these cells with TNF-α (10 ng/ml) at 37° C. for 2 h, followed by washing, and then we incubated cells with 10 μM concentrations of each drug. […] We next examined the effect of all three drugs on primary HIV-1 field isolates of SI and NSI strains. Activated PBMC were infected with two independent HIV-1 viral strains of SI (UG/92/029, subtype A envelope) and NSI (THA/92/001, subtype E envelope).
Five days later, the supernatants were collected, and the amount of newly synthesized HIV-1 was measured by p24 antigen assay. (B) Purified Tat (300 μg) was electroporated into ACH2, 8E5, and U1 cells and subsequently treated with various drugs for 5 days. […] Seven days later samples were collected and used for p19 gag ELISA. (E) PHA-activated PBMC (5×10^6) were infected with HIV-1 either SI (UG/92/029 Uganda strain, subtype A envelope) or NSI (THA/92/001, Thailand strain, subtype E envelope) strains. Unadsorbed viruses were washed after 6 h, and cells were cultured in fresh media with various cdk inhibitors (10 μM). Samples were collected every sixth day and used for p24 gag ELISA assay.
At days 2, 4, and 6, the supernatants were collected, and the released HIV-1 particles were measured by using a p24 antigen ELISA assay. (B) Twenty micrograms of total RNA was separated on an RNA-formaldehyde-agarose gel, transferred, and probed with full-length labeled HIV-1 genome RNA. The hybridized genomic RNA, singly spliced (structural), and doubly spliced (regulatory) RNAs were exposed and counted by using Molecular Dynamic PhosphorImager software.
Supernatants from the infected PBMC were collected and used directly for the p24 antigen assay. The p24 gag antigen level was analyzed by using the HIVAG-1 Monoclonal Antibody Kit (Abbott Laboratories, Diagnostics Division). The HTLV-1 p19 core antigen ELISA kit was from Retro-Tek (Cellular Products).

CEM cells = assay: Cell proliferation, [3H]thymidine incorporation; type: cell-based; conditions: ca. 10 μM
Description: We next sought to determine whether the inhibition of HIV-1 transcription, observed above, could be mediated specifically by cdk inhibitors or by general cell cycle inhibitors. To distinguish between the two possibilities, we performed transfection experiments with all three cdk inhibitors tested above and two other well-established cell cycle inhibitors, namely, hydroxyurea and nocodazole. Hydroxyurea blocks DNA replication by inhibiting ribonucleotide reductase and thus arrests cell cycle progression at the G1/S checkpoint, while nocodazole blocks at G2/M by promoting tubulin depolymerization. […] Therefore, the basal transcription of HIV-1 was inhibited by purine analogs and not general cell cycle inhibitors.
FIG. 3 discloses inhibition of HIV-1 basal and activated transcription by cdk inhibitors. […] The graphs at the bottom of the figure represent the effect of various concentrations of general cell cycle inhibitors (hydroxyurea and nocodazole) on CEM cells. (B) Inhibition of activated transcription in CEM cells was examined using transfected HIV-1 LTR-CAT, together with pcTat plasmid. […]
Cells (CEM) were initially treated with various concentrations of hydroxyurea or nocodazole and evaluated after 0, 12, 24, 48, 60, and 72 h. […] The amount of radioactivity incorporated into the DNA was measured in a liquid scintillation counter (Packard) and expressed as the counts per minute (cpm). […]

[1] = test system: uninfected T and monocytic cells; assay: Initial test of cdk inhibitors on uninfected cells (data not shown)

SMILES | inhibition of HIV-1 replication, prolonged treatment (HIV-1) | postintegrative HIV-1 progeny formation (HIV-1) | inhibition of DNA synthesis (CEM cells) | toxicity in uninfected cells [1]
NC(=O)NO [hydroxyurea, reference compound] | neither hydroxyurea nor nocodazole was able to inhibit HIV-1 replication | remained essentially the same | no inhibition of DNA synthesis was observed | 
COC(=O)Nc1nc2ccc(C(=O)c3cccs3)cc2[nH]1 [nocodazole, reference compound] | neither hydroxyurea nor nocodazole was able to inhibit HIV-1 replication | slightly higher | no inhibition of DNA synthesis was observed | 
Cn1cnc2c(NCc3ccccc3)nc(NCCO)nc21 [Olomoucine] |  |  |  | lack of toxicity
